Assay results from patent US10544150B2, “NK-3 receptor selective antagonist compounds, pharmaceutical composition and methods for use in NK-3 receptors mediated disorders” (Ogeda SA, priority 2010, dated 2020).
pKi: −log10 of the molar value.

molecular target: human NK-3 receptor (Homo sapiens (Human), UniProt P29371); assay: 3H-SB222200 binding competition assay with human NK-3 receptor; conditions: 3H-SB222200 displacement, CHO cell membranes expressing human NK3 receptor; read-out: Ki range
Method in brief: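 Membranes from CHO cells expressing human NK3 receptor incubated with 5 nM 3H-SB222200 and test compound in HEPES 25 mM/NaCl 0.1M/CaCl2 1 mM/MgCl2 5 mM/BSA 0.5%/saponin 10 μg/ml, pH 7.4. Bound radioligand counted after filtration; Ki calculated, reported in bands (+++ <500 nM to # >5 μM).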

human NK-3 receptor, sequence (P29371 whole entry): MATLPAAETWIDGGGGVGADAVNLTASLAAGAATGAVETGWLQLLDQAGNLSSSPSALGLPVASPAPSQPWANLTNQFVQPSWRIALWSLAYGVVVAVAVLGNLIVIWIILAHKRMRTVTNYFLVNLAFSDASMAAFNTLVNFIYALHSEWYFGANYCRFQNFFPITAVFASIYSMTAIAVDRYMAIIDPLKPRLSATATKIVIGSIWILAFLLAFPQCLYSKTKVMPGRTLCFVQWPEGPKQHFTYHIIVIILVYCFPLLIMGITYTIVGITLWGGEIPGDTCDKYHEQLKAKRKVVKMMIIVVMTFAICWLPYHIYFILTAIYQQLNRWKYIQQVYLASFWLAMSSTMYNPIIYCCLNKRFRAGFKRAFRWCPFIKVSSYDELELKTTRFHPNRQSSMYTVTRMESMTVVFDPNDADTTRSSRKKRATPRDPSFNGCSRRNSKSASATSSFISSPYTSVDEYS

| pKi | SMILES |
| --- | --- |
| 5.30 to 6.00 | O=C(c1ccc(F)cc1)N1CCn2c(nnc2-c2cc3ccccc3cn2)C1 [Compound 15, (4-fluorophenyl)(3-(isoquinolin-3-yl)-5,6-dihydro-[1,2,4]triazolo[4,3-a]pyrazin-7(8H)-yl)methanone] |
| > 6.30 | O=C(c1ccc(-c2cccs2)cc1)N1CCn2c(nnc2-c2csc(N3CCCCC3)n2)C1 [Compound 247, (3-(2-(piperidin-1-yl)thiazol-4-yl)-5,6-dihydro-[1,2,4]triazolo[4,3-a]pyrazin-7(8H)-yl)(4-(thiophen-2-yl)phenyl)methanone] |
| 5.30 to 6.00 | O=C(c1cc(-c2ccc(C(F)(F)F)cc2)n[nH]1)N1CCn2c(nnc2-c2ccccn2)C1 [Compound 17, (3-(pyridin-2-yl)-5,6-dihydro-[1,2,4]triazolo[4,3-a]pyrazin-7(8H)-yl)(3-(4-(trifluoromethyl)phenyl)-1H-pyrazol-5-yl)methanone] |
| > 6.30 | CN1CCN(c2ccc(-c3nc(-c4nnc5n4CCN(C(=O)c4ccc(-c6cccs6)cc4)C5)cs3)cc2)CC1 [Compound 241, (3-(2-(4-(4-methylpiperazin-1-yl)phenyl)thiazol-4-yl)-5,6-dihydro-[1,2,4]triazolo[4,3-a]pyrazin-7(8H)-yl)(4-(thiophen-2-yl)phenyl)methanone] |
| 5.30 to 6.00 | Cc1ccc(C(=O)N2CCn3c(nnc3-c3ccccn3)C2)cc1 [Compound 232, (3-(pyridin-2-yl)-5,6-dihydro-[1,2,4]triazolo[4,3-a]pyrazin-7(8H)-yl)(p-tolyl)methanone] |
| 6.00 to 6.30 | O=C(c1ccc(F)cc1)N1CCn2c(nnc2-c2cccc(C(F)(F)F)n2)C1 [Compound 39, (4-fluorophenyl)(3-(6-(trifluoromethyl)pyridin-2-yl)-5,6-dihydro-[1,2,4]triazolo[4,3-a]pyrazin-7(8H)-yl)methanone] |
| > 6.30 | O=C(c1ccc(-c2ccccc2)cc1)N1CCn2c(nnc2-c2csc(-c3cccs3)n2)C1 [Compound 195, [1,1′-biphenyl]-4-yl(3-(2-(thiophen-2-yl)thiazol-4-yl)-5,6-dihydro-[1,2,4]triazolo[4,3-a]pyrazin-7(8H)-yl)methanone] |
| > 6.30 | O=C(c1ccc(F)cc1)N1CCn2c(nnc2-c2csc(-c3ccc(C(F)(F)F)cc3)n2)C1 [Compound 24, (4-fluorophenyl)(3-(2-(4-(trifluoromethyl)phenyl)thiazol-4-yl)-5,6-dihydro-[1,2,4]triazolo[4,3-a]pyrazin-7(8H)-yl)methanone] |
| > 6.30 | O=C(c1ccc(F)cc1)N1CCn2c(nnc2-c2cccc(-c3ccccc3)n2)C1 [Compound 25, (4-fluorophenyl)(3-(6-phenylpyridin-2-yl)-5,6-dihydro-[1,2,4]triazolo[4,3-a]pyrazin-7(8H)-yl)methanone] |
| > 6.30 | Cc1ccc(-c2nc(-c3nnc4n3CCN(C(=O)c3ccc(F)cc3)C4)cs2)cc1 [Compound 190, (4-fluorophenyl)(3-(2-(p-tolyl)thiazol-4-yl)-5,6-dihydro-[1,2,4]triazolo[4,3-a]pyrazin-7(8H)-yl)methanone] |
| > 6.30 | O=C(c1ccc(F)cc1)N1CCn2c(nnc2-c2csc(N3CCCCC3)n2)C1 [Compound 33, (4-fluorophenyl)(3-(2-(piperidin-1-yl)thiazol-4-yl)-5,6-dihydro-[1,2,4]triazolo[4,3-a]pyrazin-7(8H)-yl)methanone] |
| 5.30 to 6.00 | O=C(c1ccc(F)cc1)N1CCn2c(nnc2-c2csc(-c3ccccn3)n2)C1 [Compound 230, (4-fluorophenyl)(3-(2-(pyridin-2-yl)thiazol-4-yl)-5,6-dihydro-[1,2,4]triazolo[4,3-a]pyrazin-7(8H)-yl)methanone] |
| 6.00 to 6.30 | O=C(c1ccc(F)cc1)N1CCn2c(nnc2-c2csc(-c3ccc(N4CCOCC4)cc3)n2)C1 [Compound 240, (4-fluorophenyl)(3-(2-(4-morpholinophenyl)thiazol-4-yl)-5,6-dihydro-[1,2,4]triazolo[4,3-a]pyrazin-7(8H)-yl)methanone] |
| > 6.30 | O=C(c1ccc(-c2cccs2)cc1)N1CCn2c(nnc2-c2csc(N3CCCC3)n2)C1 [Compound 248, (3-(2-(pyrrolidin-1-yl)thiazol-4-yl)-5,6-dihydro-[1,2,4]triazolo[4,3-a]pyrazin-7(8H)-yl)(4-(thiophen-2-yl)phenyl)methanone] |
| > 6.30 | O=C(c1ccc(F)cc1)N1CCn2c(nnc2-c2csc(-c3ccccc3F)n2)C1 [Compound 180, (4-fluorophenyl)(3-(2-(2-fluorophenyl)thiazol-4-yl)-5,6-dihydro-[1,2,4]triazolo[4,3-a]pyrazin-7(8H)-yl)methanone] |
| > 6.30 | O=C(c1ccc(-c2cccs2)cc1)N1CCn2c(nnc2-c2ccc3ccccc3n2)C1 [Compound 69, (3-(quinolin-2-yl)-5,6-dihydro-[1,2,4]triazolo[4,3-a]pyrazin-7(8H)-yl)(4-(thiophen-2-yl)phenyl)methanone] |

| pKi | SMILES |
| --- | --- |
| > 6.30 | CC1c2nnc(-c3csc(-c4ccccc4)n3)n2CCN1C(=O)c1ccc(F)cc1 (centres unmarked) [Compound 166, (4-fluorophenyl)(8-methyl-3-(2-phenylthiazol-4-yl)-5,6-dihydro-[1,2,4]triazolo[4,3-a]pyrazin-7(8H)-yl)methanone] |
| > 6.30 | O=C(c1ccc(-c2cccs2)cc1)N1CCn2c(nnc2-c2csc(-c3ccc(F)cc3)n2)C1 [Compound 73, (3-(2-(4-fluorophenyl)thiazol-4-yl)-5,6-dihydro-[1,2,4]triazolo[4,3-a]pyrazin-7(8H)-yl)(4-(thiophen-2-yl)phenyl)methanone] |
| > 6.30 | CC1(C)c2nnc(-c3csc(-c4ccccc4)n3)n2CCN1C(=O)c1ccc(F)cc1 [Compound 60, (8,8-dimethyl-3-(2-phenylthiazol-4-yl)-5,6-dihydro-[1,2,4]triazolo[4,3-a]pyrazin-7(8H)-yl)(4-fluorophenyl)methanone] |
| > 6.30 | Cc1cccc(-c2nnc3n2CCN(C(=O)c2ccc(F)cc2)C3)n1 [Compound 11, (4-fluorophenyl)(3-(6-methylpyridin-2-yl)-5,6-dihydro-[1,2,4]triazolo[4,3-a]pyrazin-7(8H)-yl)methanone] |
| > 6.30 | O=C(c1ccc(-c2cccs2)cc1)N1CCn2c(nnc2-c2csc(-c3ccc(F)cc3F)n2)C1 [Compound 170, (3-(2-(2,4-difluorophenyl)thiazol-4-yl)-5,6-dihydro-[1,2,4]triazolo[4,3-a]pyrazin-7(8H)-yl)(4-(thiophen-2-yl)phenyl)methanone] |
| > 6.30 | CC1c2nnc(-c3ccc4ccccc4n3)n2CCN1C(=O)c1ccc(-c2cccs2)cc1 (centres unmarked) [Compound 65, (8-methyl-3-(quinolin-2-yl)-5,6-dihydro-[1,2,4]triazolo[4,3-a]pyrazin-7(8H)-yl)(4-(thiophen-2-yl)phenyl)methanone] |
| > 6.30 | O=C(c1ccc(-c2ccc(F)cc2)cc1)N1CCn2c(nnc2-c2nc(-c3ccccc3)no2)C1 [Compound 223, (4′-fluoro-[1,1′-biphenyl]-4-yl)(3-(3-phenyl-1,2,4-oxadiazol-5-yl)-5,6-dihydro-[1,2,4]triazolo[4,3-a]pyrazin-7(8H)-yl)methanone] |
| > 6.30 | COCCn1nc(-c2ccccc2)cc1-c1nnc2n1CCN(C(=O)c1ccc(-c3cccs3)cc1)C2 [Compound 254, (3-(1-(2-methoxyethyl)-3-phenyl-1H-pyrazol-5-yl)-5,6-dihydro-[1,2,4]triazolo[4,3-a]pyrazin-7(8H)-yl)(4-(thiophen-2-yl)phenyl)methanone] |
| > 6.30 | O=C(c1ccc(-c2ccccc2)cc1)N1CCn2c(nnc2-c2csc(N3CCOCC3)n2)C1 [Compound 20, [1,1′-biphenyl]-4-yl(3-(2-morpholinothiazol-4-yl)-5,6-dihydro-[1,2,4]triazolo[4,3-a]pyrazin-7(8H)-yl)methanone] |
| > 6.30 | C[C@@H]1c2nnc(-c3nc(-c4ccc(F)cc4)no3)n2CCN1C(=O)c1ccc(-c2cccs2)cc1 [Compound 169, (R)-(3-(3-(4-fluorophenyl)-1,2,4-oxadiazol-5-yl)-8-methyl-5,6-dihydro-[1,2,4]triazolo[4,3-a]pyrazin-7(8H)-yl)(4-(thiophen-2-yl)phenyl)methanone] |
| > 6.30 | O=C(c1ccc(-c2cccs2)cc1)N1CCn2c(nnc2-c2csc(-c3ccccc3O)n2)C1 [Compound 262, (3-(2-(2-hydroxyphenyl)thiazol-4-yl)-5,6-dihydro-[1,2,4]triazolo[4,3-a]pyrazin-7(8H)-yl)(4-(thiophen-2-yl)phenyl)methanone] |
| 5.30 to 6.00 | C[C@H]1c2nnc(-c3csc(-c4ccc(F)cc4)n3)n2CCN1C(=O)c1ccc(F)cc1 [Compound 160, (S)-(4-fluorophenyl)(3-(2-(4-fluorophenyl)thiazol-4-yl)-8-methyl-5,6-dihydro-[1,2,4]triazolo[4,3-a]pyrazin-7(8H)-yl)methanone] |
| 6.00 to 6.30 | CN(C)c1ccc(-c2nc(-c3nnc4n3CCN(C(=O)c3ccc(F)cc3)C4)cs2)cc1 [Compound 221, (3-(2-(4-(dimethylamino)phenyl)thiazol-4-yl)-5,6-dihydro-[1,2,4]triazolo[4,3-a]pyrazin-7(8H)-yl)(4-fluorophenyl)methanone] |
| > 6.30 | C[C@@H]1c2nnc(-c3ccc4ccccc4n3)n2CCN1C(=O)c1ccc(F)cc1 [Compound 115, (R)-(4-fluorophenyl)(8-methyl-3-(quinolin-2-yl)-5,6-dihydro-[1,2,4]triazolo[4,3-a]pyrazin-7(8H)-yl)methanone] |
| < 5.30 | CC1(C)CCN(c2nc(-c3nnc4n3CCN(C(=O)c3ccc(F)cc3)C4)cs2)CC1 [Compound 276, (3-(2-(4,4-dimethylpiperidin-1-yl)thiazol-4-yl)-5,6-dihydro-[1,2,4]triazolo[4,3-a]pyrazin-7(8H)-yl)(4-fluorophenyl)methanone] |
| 6.00 to 6.30 | O=C(c1ccc(F)cc1)N1CCn2c(nnc2-c2csc(-c3ccc(N4CCCCC4)cc3)n2)C1 [Compound 244, (4-fluorophenyl)(3-(2-(4-(piperidin-1-yl)phenyl)thiazol-4-yl)-5,6-dihydro-[1,2,4]triazolo[4,3-a]pyrazin-7(8H)-yl)methanone] |
